Experimental data from US7074789B2, “Kinase inhibitors” (Amgen Inc., priority 1999, dated 2006).

Assays:
Assay type in all cases: biochemical
[1] = target: T1, Lck (Homo sapiens, UniProt P06239); assay: Kinase inhibition assay (33P transfer), Lck; details: read-out: Lck-1
T1 construct: Kinases are expressed as either kinase domains or full length constructs; made in house
How it was run: (§1)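 33P-ATP transfer to coated synthetic polymer substrates; acid wash (0.5% H3PO4), scintillant, liquid scintillation count. Enzymes: His- or GST-fusion kinases from E. coli or High Five insect cells.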

[2] = target: T2, Zap-70 (Homo sapiens, UniProt P43403); assay: Kinase inhibition assay (33P transfer), Zap-70; details: read-out: Zap-1
T2 construct: Kinases are expressed as either kinase domains or full length constructs; made in house
T2 sequence (P43403 1-619): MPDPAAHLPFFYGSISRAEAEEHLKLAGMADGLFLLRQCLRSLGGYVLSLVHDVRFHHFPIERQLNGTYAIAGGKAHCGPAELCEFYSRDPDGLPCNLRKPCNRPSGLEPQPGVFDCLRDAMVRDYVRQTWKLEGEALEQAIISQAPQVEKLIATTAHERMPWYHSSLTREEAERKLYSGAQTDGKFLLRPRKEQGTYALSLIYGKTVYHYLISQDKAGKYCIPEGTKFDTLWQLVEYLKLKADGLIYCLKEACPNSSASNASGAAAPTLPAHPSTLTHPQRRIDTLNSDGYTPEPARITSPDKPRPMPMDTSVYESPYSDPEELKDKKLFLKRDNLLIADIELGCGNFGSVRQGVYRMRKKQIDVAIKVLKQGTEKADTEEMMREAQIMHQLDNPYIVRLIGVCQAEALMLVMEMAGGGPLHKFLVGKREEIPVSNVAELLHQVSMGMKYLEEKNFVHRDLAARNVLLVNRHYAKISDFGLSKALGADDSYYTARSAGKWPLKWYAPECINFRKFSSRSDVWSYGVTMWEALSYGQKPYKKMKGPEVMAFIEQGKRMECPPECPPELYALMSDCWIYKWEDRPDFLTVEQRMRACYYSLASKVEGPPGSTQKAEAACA
How it was run: as §1

[3] = target: T3, Itk (Homo sapiens, UniProt Q08881); assay: Kinase inhibition assay (33P transfer), Itk; details: read-out: Itk-1
T3 construct: Kinases are expressed as either kinase domains or full length constructs; made in house
T3 sequence (Q08881 1-620): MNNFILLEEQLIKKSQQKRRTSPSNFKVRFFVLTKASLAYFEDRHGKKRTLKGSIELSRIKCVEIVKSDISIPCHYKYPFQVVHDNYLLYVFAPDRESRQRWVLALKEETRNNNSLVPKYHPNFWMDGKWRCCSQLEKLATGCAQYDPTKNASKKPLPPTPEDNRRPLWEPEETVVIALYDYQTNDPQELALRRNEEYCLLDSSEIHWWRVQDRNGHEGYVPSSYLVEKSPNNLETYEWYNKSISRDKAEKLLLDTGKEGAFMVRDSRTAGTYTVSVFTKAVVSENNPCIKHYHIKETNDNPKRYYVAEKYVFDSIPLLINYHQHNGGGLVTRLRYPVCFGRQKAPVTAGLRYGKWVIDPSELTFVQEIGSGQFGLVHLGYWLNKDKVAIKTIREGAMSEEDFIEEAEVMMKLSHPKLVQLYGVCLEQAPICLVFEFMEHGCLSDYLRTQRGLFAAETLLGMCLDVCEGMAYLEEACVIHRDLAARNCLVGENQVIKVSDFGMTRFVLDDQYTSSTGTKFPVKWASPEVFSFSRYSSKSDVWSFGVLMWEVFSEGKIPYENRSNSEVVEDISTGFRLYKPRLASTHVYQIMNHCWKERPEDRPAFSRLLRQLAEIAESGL
How it was run: (§2)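 Recombinant kinase domains or full-length GST- or His-tagged constructs, from E. coli or baculovirus/High Five cells, sometimes with regulatory polypeptides. Transfer of 33P from ATP to plate-bound poly(Glu,Tyr) 4:1 or poly(Arg,Ser) 3:1 counted by liquid scintillation after phosphoric acid wash; IC50 is the concentration halving incorporation.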

[4] = target: T4, EGFR (Homo sapiens, UniProt P00533); assay: Kinase inhibition assay (33P transfer), EGFR; details: Table 2, kinase inhibition class; read-out: EGFR-1
T4 construct: Kinases are expressed as either kinase domains or full length constructs; made in house
How it was run: as §2

[5] = target: T5, ErbB2 (Homo sapiens, UniProt P04626); assay: Kinase inhibition assay (33P transfer), ErbB2; details: read-out: ErbB2-2
T5 construct: Kinases are expressed as either kinase domains or full length constructs; made in house
How it was run: as §2

[6] = target: T6, Kdr (Homo sapiens, UniProt P35968); assay: Kinase inhibition assay (33P transfer), Kdr; details: read-out: KDR-1
T6 construct: Kinases are expressed as either kinase domains or full length constructs; made in house
How it was run: as §1

[7] = target: T7, c-Met (Homo sapiens, UniProt P08581); assay: Kinase inhibition assay (33P transfer), c-Met; details: Table 2, kinase inhibition class; read-out: Met-1
T7 construct: Kinases are expressed as either kinase domains or full length constructs; made in house
How it was run: as §2

[8] = target: T8, AKT (Homo sapiens, UniProt Q9Y243); assay: Kinase inhibition assay (33P transfer), AKT; details: Table 2, kinase inhibition class; read-out: AKT3-1
T8 construct: Kinases are expressed as either kinase domains or full length constructs; made in house
How it was run: as §1

[9] = target: T9, IGFR-1 (Homo sapiens, UniProt P08069); assay: Kinase inhibition assay, IGFR-1 (Table 2); details: Table 2, kinase inhibition class
T9 construct: Kinases are expressed as either kinase domains or full length constructs; made in house

[10] = target: T10, PDGFRB (Homo sapiens, UniProt P09619); assay: Kinase inhibition assay (33P transfer), PDGFRB; details: read-out: PDGFRB-1
T10 construct: Kinases are expressed as either kinase domains or full length constructs; made in house

T1 sequence (P06239 whole entry, species assumed, the tested form may be a part): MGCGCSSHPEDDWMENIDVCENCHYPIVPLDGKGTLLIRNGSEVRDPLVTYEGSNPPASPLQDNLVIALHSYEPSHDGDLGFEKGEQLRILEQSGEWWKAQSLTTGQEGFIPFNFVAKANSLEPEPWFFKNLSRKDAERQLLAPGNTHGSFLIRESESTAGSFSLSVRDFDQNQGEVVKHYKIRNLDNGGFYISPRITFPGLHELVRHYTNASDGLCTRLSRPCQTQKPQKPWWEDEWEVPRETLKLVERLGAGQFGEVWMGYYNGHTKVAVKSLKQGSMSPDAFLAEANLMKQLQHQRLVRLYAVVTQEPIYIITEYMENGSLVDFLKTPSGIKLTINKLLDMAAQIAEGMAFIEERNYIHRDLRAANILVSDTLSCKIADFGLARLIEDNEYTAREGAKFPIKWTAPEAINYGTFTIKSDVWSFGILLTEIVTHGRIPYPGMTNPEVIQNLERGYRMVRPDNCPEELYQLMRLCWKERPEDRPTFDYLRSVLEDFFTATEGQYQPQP
T7 sequence (P08581 25-1390): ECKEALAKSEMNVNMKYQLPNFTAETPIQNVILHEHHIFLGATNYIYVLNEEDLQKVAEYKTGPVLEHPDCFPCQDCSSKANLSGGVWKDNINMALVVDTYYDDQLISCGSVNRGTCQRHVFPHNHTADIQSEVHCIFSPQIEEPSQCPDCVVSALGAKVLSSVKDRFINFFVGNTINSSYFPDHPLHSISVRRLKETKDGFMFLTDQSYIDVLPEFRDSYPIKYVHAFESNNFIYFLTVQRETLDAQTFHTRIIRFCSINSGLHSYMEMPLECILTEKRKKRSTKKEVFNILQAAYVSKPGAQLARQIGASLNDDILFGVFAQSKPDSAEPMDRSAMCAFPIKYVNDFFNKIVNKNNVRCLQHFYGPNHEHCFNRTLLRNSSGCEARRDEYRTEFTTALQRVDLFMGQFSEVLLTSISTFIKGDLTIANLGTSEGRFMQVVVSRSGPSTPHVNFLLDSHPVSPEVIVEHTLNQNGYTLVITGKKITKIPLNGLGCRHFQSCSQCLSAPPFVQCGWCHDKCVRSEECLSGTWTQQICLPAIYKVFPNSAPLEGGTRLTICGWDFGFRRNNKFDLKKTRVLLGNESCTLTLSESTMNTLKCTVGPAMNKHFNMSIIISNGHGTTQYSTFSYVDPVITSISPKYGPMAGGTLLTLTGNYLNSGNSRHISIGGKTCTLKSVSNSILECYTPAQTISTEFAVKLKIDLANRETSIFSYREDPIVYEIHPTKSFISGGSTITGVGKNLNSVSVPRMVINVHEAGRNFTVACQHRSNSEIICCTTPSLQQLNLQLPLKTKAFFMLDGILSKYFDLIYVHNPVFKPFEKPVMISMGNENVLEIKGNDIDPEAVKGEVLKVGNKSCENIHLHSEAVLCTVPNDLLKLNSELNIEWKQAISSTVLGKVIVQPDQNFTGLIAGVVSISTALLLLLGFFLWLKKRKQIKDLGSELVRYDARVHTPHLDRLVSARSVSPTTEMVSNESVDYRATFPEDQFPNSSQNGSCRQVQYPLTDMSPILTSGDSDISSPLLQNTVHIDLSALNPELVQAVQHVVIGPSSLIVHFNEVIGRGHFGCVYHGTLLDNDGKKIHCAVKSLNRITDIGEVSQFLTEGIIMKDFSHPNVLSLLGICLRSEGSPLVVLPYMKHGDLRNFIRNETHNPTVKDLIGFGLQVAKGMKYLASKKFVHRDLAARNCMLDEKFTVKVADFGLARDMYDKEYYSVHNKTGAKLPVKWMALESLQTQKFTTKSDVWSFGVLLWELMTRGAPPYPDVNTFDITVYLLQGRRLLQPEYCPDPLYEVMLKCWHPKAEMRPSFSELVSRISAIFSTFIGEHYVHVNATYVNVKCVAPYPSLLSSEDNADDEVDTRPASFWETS
T9 sequence (P08069 31-1367): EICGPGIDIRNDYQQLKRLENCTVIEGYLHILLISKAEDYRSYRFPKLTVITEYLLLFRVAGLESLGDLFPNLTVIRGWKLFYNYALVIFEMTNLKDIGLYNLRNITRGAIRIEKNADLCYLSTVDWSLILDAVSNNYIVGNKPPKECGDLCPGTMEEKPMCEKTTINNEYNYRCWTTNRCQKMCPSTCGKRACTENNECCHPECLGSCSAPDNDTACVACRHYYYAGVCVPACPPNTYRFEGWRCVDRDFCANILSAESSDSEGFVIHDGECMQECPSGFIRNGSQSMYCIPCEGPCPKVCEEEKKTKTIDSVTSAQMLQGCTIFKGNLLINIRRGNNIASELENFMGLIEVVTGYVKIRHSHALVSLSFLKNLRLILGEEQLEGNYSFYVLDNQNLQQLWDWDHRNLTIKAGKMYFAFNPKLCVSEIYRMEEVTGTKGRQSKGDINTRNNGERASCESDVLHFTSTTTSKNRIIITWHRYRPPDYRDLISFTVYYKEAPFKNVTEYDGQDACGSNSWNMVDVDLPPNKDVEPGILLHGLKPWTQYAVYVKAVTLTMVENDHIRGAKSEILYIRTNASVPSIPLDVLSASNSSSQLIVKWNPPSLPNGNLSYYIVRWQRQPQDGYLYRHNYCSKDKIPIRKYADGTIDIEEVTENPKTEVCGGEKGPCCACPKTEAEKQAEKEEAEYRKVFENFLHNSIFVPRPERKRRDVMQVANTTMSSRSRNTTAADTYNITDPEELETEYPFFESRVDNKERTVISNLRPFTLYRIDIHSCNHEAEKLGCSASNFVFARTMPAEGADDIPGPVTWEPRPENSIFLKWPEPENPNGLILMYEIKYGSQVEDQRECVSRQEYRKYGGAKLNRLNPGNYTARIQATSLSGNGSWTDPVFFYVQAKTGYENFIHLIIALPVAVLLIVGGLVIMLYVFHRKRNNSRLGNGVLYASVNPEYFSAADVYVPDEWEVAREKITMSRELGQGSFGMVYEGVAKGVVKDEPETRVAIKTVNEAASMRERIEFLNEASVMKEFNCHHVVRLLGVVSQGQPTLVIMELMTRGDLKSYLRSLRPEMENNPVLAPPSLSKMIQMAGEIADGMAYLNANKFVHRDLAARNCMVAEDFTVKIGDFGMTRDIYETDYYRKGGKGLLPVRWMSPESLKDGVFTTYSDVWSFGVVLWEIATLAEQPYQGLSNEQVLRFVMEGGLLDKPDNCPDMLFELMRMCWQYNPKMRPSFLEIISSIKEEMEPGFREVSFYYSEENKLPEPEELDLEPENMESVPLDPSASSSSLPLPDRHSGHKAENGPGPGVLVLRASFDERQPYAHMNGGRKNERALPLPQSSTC
T8 sequence (Q9Y243 whole entry, the tested form may be a part): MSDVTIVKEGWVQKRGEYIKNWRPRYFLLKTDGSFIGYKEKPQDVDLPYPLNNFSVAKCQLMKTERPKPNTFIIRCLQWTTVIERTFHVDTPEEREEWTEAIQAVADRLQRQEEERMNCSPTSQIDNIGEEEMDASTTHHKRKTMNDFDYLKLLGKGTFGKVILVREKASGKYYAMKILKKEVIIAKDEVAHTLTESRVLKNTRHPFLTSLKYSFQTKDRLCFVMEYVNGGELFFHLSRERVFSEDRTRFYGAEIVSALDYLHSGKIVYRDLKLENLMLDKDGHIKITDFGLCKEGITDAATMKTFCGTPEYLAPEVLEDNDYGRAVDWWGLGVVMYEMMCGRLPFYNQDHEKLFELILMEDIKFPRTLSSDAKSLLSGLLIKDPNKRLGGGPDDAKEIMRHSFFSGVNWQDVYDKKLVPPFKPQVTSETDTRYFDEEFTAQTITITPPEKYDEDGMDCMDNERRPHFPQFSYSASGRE
T5 sequence (P04626 23-1255, species assumed): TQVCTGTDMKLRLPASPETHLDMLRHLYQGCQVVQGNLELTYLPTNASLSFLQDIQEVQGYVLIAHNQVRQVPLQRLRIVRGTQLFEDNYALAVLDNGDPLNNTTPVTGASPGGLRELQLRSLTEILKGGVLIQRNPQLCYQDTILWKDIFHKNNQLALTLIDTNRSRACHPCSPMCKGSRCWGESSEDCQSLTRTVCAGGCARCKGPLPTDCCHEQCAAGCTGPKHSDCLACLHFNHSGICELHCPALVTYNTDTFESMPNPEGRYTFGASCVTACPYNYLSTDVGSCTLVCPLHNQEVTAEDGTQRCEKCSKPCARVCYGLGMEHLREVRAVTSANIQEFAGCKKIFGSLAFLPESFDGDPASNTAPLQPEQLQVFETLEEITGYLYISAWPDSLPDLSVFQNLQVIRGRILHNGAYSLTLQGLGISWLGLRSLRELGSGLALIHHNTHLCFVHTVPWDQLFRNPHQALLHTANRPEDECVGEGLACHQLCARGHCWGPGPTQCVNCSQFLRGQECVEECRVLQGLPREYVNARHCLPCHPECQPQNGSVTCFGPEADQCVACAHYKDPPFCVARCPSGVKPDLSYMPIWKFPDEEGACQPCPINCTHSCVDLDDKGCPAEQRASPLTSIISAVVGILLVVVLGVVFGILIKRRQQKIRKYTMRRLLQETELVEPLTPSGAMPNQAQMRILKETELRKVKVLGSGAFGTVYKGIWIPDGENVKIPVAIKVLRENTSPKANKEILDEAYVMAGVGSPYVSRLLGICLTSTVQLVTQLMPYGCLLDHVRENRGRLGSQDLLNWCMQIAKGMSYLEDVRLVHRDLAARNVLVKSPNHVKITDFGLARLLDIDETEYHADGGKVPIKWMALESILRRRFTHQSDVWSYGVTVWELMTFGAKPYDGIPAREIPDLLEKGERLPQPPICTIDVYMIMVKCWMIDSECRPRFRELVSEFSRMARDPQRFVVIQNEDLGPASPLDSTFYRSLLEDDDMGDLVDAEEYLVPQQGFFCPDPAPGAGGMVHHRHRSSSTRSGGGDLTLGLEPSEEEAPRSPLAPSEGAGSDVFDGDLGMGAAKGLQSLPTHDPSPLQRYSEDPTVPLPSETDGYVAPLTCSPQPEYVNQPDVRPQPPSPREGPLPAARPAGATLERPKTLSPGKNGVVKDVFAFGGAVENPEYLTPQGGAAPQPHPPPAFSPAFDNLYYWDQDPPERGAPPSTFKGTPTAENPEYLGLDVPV

IC50 [1] [µM]	IC50 [2] [µM]	IC50 [3] [µM]	IC50 [4] [µM]	IC50 [5] [µM]	IC50 [6] [µM]	IC50 [7] [µM]	IC50 [8] [µM]	IC50 [9] [µM]	IC50 [10] [µM]	Compound
> 10.7	5.69 to 8.3	> 10.7	> 10.7	5.69 to 8.3	0.949 to 5.69	8.3 to 10.7	> 10.7	5.69 to 8.3	> 10.7	c1ccc(CCNc2ncnc(Nc3ccc4c(cnn4Cc4ccccc4)c3)n2)cc1 [Compound 734]
> 11.6	> 11.6	> 11.6	> 11.6	> 11.6	> 11.6	> 11.6	> 11.6	> 11.6	> 11.6	COc1ccc(Nc2ncnc(NCCCN3CCN(C)CC3)n2)cc1OC [Compound 786]
> 12.5	> 12.5	> 12.5	> 12.5	> 12.5	> 12.5	> 12.5	> 12.5	> 12.5	> 12.5	CN(c1cccc(Cl)c1)c1ncnc(Nc2cc(C(C)(C)C)on2)n1 [Compound 754]
> 13.9	> 13.9	> 13.9	> 13.9	> 13.9	> 13.9	> 13.9	> 13.9	> 13.9	> 13.9	CN(c1cccc(Cl)c1)c1ncnc(NCCOCCO)n1 [Compound 746]
6.48 to 9.45	> 12.2	> 12.2	< 1.08	1.08 to 6.48	> 12.2	6.48 to 9.45	> 12.2	> 12.2	9.45 to 12.2	Cc1cccc(Nc2ncnc(N(C)c3cccc(Br)c3)n2)c1 [Compound 666]
> 10.6	> 10.6	> 10.6	> 10.6	> 10.6	> 10.6	8.22 to 10.6	> 10.6	> 10.6	> 10.6	CN1CCN(Cc2cccc(Nc3ncnc(Nc4cccc5ccccc45)n3)c2)CC1 [Compound 551]
< 0.982	> 11	8.59 to 11	0.982 to 5.89	< 0.982	0.982 to 5.89	> 11	> 11	< 0.982	< 0.982	COc1cc(Nc2ncnc(Nc3ccc4c(cnn4C)c3)n2)cc(OC)c1OC [Compound 557]
> 11.5	> 11.5	> 11.5	< 1.02	> 11.5	> 11.5	> 11.5	> 11.5	> 11.5	> 11.5	CN(c1cccc(Cl)c1)c1ncnc(Nc2cccc(Br)c2)n1 [Compound 707]
> 12.5	> 12.5	> 12.5	> 12.5	> 12.5	< 1.11	> 12.5	> 12.5	< 1.11	1.11 to 6.64	Nc1nc2ccccc2n1-c1ncnc(Nc2cccc(CC(=O)O)c2)n1 [Compound 544]
< 1.04	> 11.6	< 1.04	< 1.04	1.04 to 6.21	< 1.04	< 1.04	> 11.6	< 1.04	1.04 to 6.21	NC(=O)Cc1cccc(Nc2ncnc(Nc3cc(-c4ccccc4)n[nH]3)n2)c1 [Compound 578]
6.63 to 8.53	> 8.53	> 8.53	> 8.53	0.758 to 4.55	0.758 to 4.55	> 8.53	4.55 to 6.63	> 8.53	6.63 to 8.53	COc1cc(Nc2ncnc(-n3c(NCc4ccc5c(c4)OCO5)nc4ccccc43)n2)cc(OC)c1OC [Compound 595]
> 10.8	> 10.8	> 10.8	5.77 to 8.42	> 10.8	> 10.8	> 10.8	> 10.8	> 10.8	> 10.8	COc1cc(CNc2ncnc(N(C)c3cccc(Cl)c3)n2)cc(OC)c1OC [Compound 747]
7.27 to 9.35	> 9.35	> 9.35	> 9.35	> 9.35	< 0.831	> 9.35	> 9.35	> 9.35	0.831 to 4.98	COc1ccc(CNc2nc3ccccc3n2-c2ncnc(Nc3cccc(CC(=O)O)c3)n2)cc1 [Compound 534]
0.791 to 4.75	0.791 to 4.75	0.791 to 4.75	0.791 to 4.75	4.75 to 6.92	< 0.791	0.791 to 4.75	0.791 to 4.75	0.791 to 4.75	0.791 to 4.75	COc1ccc(CNc2nc3ccccc3n2-c2ncnc(Nc3cccc(Cc4nnn[nH]4)c3)n2)cc1 [Compound 959]
> 14.1	> 14.1	> 14.1	> 14.1	> 14.1	> 14.1	> 14.1	> 14.1	> 14.1	11 to 14.1	CCC(O)CNc1ncnc(Nc2ccc(OC)c(OC)c2)n1 (centres unmarked) [Compound 788]
> 11	> 11	> 11	0.978 to 5.87	> 11	> 11	> 11	> 11	> 11	> 11	CN(c1cccc(Cl)c1)c1ncnc(NC2CCN(Cc3ccccc3)CC2)n1 [Compound 752]
1.09 to 6.53	1.09 to 6.53	1.09 to 6.53	< 1.09	1.09 to 6.53	1.09 to 6.53	1.09 to 6.53	> 12.2	1.09 to 6.53	1.09 to 6.53	CN(c1cccc(Cl)c1)c1ncnc(Nc2cc(-c3ccco3)[nH]n2)n1 [Compound 753]
1.04 to 6.24	> 11.7	1.04 to 6.24	< 1.04	< 1.04	1.04 to 6.24	< 1.04	1.04 to 6.24	6.24 to 9.1	< 1.04	Cc1ccc2c(c1)CCCN2c1ncnc(Nc2cccc(-c3cnco3)c2)n1 [Compound 774]
1.09 to 6.57	> 12.3	1.09 to 6.57	1.09 to 6.57	1.09 to 6.57	< 1.09	9.58 to 12.3	> 12.3	1.09 to 6.57	1.09 to 6.57	COC(=O)Cc1cccc(Nc2ncnc(Nc3ccc(C)c(O)c3)n2)c1 [Compound 542]
> 9.77	> 9.77	> 9.77	> 9.77	> 9.77	> 9.77	> 9.77	> 9.77	> 9.77	> 9.77	COc1cc(Nc2ncnc(Oc3ccc(OCc4ccccc4)cc3)n2)cc(OC)c1OC [Compound 530]
